Active and inactive are the calls of the source.
How the values were obtained:
[1] = luciferase reporter signal suppression in cells – H4 neuroglioma cells, luminescence, dose response (AID 1990); assay type: functional, cell-based
[2] = target: Female germline-specific tumor suppressor gld-1 (Caenorhabditis elegans, UniProt Q17339); assay: blockers of GLD-1/TGE RNA complex formation – biochemical, fluorescence polarization, C. elegans, dose response (AID 2802);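 note: fluorescence polarization of labeled TGE RNA bound by purified gld-1 protein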
[3] = MIN6 cell viability loss – mouse insulinoma, cytotoxicity control, dose response (AID 2122); assay type: functional;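 note: confirmatory high-throughput counterscreen run to flag cytotoxic compounds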
[4] = Luminescence Cell-Based Dose Response HTS to Identify Inhibitors of 5'UTR Stem-Loop Driven Prion Protein mRNA Translation in H4 Neuroglioblastoma Cells. [Related pubchem assays: 1827 (Project Summary), 1813 (Primary HTS)]; assay type: functional
[5] = alpha-synuclein stem-loop luciferase translation blockers – H4 neuroglioma cells, luminescence, confirmation (AID 1988); assay type: functional, cell-based
cells [6] = assay type: functional, cell-based
[7] = target: T1, Microphthalmia-associated transcription factor (Homo sapiens, UniProt O75030); assay: reducers of TRPM1 reporter luminescence, concentration series – cell-based, SK-MEL-5, cherry-picked, set 3, MITF inhibitor project, dose response (AID 493073); assay type: functional;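 note: SK-MEL-5 melanoma cells with luciferase driven by the MITF target TRPM1 promoter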
T1 sequence (O75030 whole entry): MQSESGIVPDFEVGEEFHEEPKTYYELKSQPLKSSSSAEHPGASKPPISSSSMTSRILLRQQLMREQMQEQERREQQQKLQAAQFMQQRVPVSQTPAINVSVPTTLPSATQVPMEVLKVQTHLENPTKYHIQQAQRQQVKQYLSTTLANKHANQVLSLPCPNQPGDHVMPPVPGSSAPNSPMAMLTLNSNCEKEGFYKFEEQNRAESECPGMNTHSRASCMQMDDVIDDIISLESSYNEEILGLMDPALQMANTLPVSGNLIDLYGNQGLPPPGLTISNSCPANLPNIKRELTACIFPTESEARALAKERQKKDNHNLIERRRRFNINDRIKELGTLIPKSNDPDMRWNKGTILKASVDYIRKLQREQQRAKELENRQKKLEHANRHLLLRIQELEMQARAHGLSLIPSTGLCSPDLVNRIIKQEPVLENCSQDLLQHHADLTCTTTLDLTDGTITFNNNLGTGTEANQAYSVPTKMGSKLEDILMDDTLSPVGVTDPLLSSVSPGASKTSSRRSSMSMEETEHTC

cells [8] = assay type: functional, cell-based; remark: listed apart in the source
INS1 = assay: INS-1E survival protection against cytokine death – cell-based, luminescence, retest, dose response (AID 449756); assay type: functional; conditions: Rattus norvegicus;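 note: cell death triggered by IL-1 beta plus TNF-alpha plus IFN-gamma mixture; protective hits raise ATP signal compared with cytokine alone wells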
Protein Rev = Protein Rev (Human immunodeficiency virus type 1 group M subtype B (isolate HXB2)(HIV-1), UniProt P04618); assay: blockers of HIV Rev/RRE RNA complex – biochemical, fluorescence polarization, HIV-1, dose response (AID 434976); parameters: species or system Human immunodeficiency virus 1
[9] = decrease of insulin promoter-GFP reporter – imaging, high-content screening, mouse beta cells (AID 1628); assay type: functional; conditions: MIN6
[10] = target: Dual specificity tyrosine-phosphorylation-regulated kinase 1A (Rattus norvegicus, UniProt Q63470); assay type: biochemical, Homo sapiens
Keap1/Nrf2 = Keap1/Nrf2 (Homo sapiens, UniProt Q14145); assay: disruptors of Keap1 binding to Nrf2 peptide – biochemical, fluorescence polarization, cherry-picked samples, dose response (AID 588683)
Cytochrome P450 3A4 = Cytochrome P450 3A4 (Homo sapiens, UniProt P08684);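 note: CYP3A4 tested as one member of a cytochrome P450 panel screen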
Cytochrome P450 2C9 = Cytochrome P450 2C9 (Homo sapiens, UniProt P11712)
Cytochrome P450 2C19 = Cytochrome P450 2C19 (Homo sapiens, UniProt P33261); assay: Cytochrome panel assay with activity outcomes. Panel member name: p450-cyp2c19 Compounds with AC50 equal or less than 10 uM are considered active; assay type: functional; conditions: read-out: AC50
Cytochrome P450 1A2 = target: T2, Cytochrome P450 1A2 (Homo sapiens, UniProt P05177);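 note: PubChem cytochrome P450 panel assay, CYP1A2 panel member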
T2 sequence (P05177 whole entry): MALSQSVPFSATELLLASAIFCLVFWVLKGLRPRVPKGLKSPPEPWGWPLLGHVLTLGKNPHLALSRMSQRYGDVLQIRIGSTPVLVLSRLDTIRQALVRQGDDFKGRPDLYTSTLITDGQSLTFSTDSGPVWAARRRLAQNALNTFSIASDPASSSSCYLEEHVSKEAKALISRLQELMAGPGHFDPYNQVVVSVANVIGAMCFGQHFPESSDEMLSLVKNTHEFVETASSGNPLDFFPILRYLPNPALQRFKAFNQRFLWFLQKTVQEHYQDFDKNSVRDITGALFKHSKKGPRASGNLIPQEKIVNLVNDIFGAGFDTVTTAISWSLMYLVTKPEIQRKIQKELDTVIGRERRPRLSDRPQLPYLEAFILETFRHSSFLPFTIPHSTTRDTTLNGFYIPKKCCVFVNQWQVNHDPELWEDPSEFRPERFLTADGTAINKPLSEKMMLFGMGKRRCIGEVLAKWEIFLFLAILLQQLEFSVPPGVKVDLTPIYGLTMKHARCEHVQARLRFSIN

[11] = reduction of Shn3 3'UTR-driven luciferase in osteoblasts – cell-based, Clone20 osteoblasts, firefly luciferase, cherry-picked, dose response (AID 624132); assay type: functional;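 note: firefly luciferase luminescence from reporter carrying the Shn3 3'UTR in osteoblasts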
[12] = non-specific 3'UTR reporter inhibition in Clone20-Shn3RL – cell-based, Renilla luciferase, cherry-picked, counter-screen for Shn3 inhibitor project, dose response (AID 624133); assay type: functional
HEK293 [13] = assay: inhibition of NOD1-driven NF-kB reporter – cell-based, luminescence, uHTS, primary screen (AID 1578); assay type: functional; conditions: Homo sapiens
HEK293 [14] = assay: cells; assay type: functional, cell-based; conditions: Homo sapiens
[15] = loss of viability in HepG2 cells – cell-based, CellTiter-Glo, cherry-picked, cytotoxicity control for Shn3 inhibitor project, dose response (AID 624134); assay type: functional
HEK293 [16] = assay: cells; assay type: functional, cell-based; conditions: Homo sapiens; remark: listed apart in the source
HEK293 [17] = assay: NOD2 signaling inhibitors in MDP-stimulated cells, cell-based, uHTS, luminescence (AID 2001); assay type: functional; conditions: Homo sapiens
[18] = Vero E6 cell cytotoxicity, dose response, cytotoxicity control for non-replicating M. tuberculosis project, secondary assay (AID 492998); assay type: functional, VeroE6; conditions: Vero C1008
[19] = THP-1 cell cytotoxicity, dose response, cytotoxicity control for non-replicating M. tuberculosis project (AID 489025); assay type: functional
[20] = target: T3, Runt-related transcription factor 1/Core-binding factor subunit beta (Homo sapiens, UniProt Q01196+Q13951); assay: disruptors of Runt domain/CBFb-SMMHC interaction – biochemical, FRET, Cerulean-Runt, Venus-CBFb-SMMHC, uHTS, […] (AID 1434); assay type: protein assay
[21] = target: T3, Runt-related transcription factor 1/Core-binding factor subunit beta; assay: Runt domain/CBFb-SMMHC interaction disruptors – biochemical, TR-FRET (AID 1438); assay type: protein assay

Cytochrome P450 3A4, sequence (P08684 whole entry): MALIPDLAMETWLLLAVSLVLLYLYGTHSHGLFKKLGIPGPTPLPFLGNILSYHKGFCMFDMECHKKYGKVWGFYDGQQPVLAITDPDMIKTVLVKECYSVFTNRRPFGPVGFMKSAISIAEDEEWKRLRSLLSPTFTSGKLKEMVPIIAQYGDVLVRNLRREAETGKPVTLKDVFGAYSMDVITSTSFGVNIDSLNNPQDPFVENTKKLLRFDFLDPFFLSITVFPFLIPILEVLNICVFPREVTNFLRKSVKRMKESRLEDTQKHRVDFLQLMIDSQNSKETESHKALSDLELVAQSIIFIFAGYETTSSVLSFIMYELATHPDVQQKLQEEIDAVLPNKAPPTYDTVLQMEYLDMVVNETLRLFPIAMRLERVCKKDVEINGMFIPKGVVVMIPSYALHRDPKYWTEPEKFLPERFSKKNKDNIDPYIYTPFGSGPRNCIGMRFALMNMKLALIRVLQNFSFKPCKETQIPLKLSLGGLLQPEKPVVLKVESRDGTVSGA
T3 sequence (Q01196 whole entry, the tested form may be a part): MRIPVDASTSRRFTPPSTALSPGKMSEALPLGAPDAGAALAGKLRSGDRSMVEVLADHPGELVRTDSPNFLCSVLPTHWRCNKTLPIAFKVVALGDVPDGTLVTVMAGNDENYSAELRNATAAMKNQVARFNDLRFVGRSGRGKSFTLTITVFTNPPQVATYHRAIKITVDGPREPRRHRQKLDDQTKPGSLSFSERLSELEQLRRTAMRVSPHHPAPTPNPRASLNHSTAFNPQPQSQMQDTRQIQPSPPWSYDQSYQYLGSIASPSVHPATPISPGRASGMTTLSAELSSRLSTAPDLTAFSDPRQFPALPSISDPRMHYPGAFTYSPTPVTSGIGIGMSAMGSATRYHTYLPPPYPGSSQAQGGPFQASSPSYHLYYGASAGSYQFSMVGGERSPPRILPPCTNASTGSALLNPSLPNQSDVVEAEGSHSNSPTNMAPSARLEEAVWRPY
T3 sequence (Q13951 whole entry, the tested form may be a part): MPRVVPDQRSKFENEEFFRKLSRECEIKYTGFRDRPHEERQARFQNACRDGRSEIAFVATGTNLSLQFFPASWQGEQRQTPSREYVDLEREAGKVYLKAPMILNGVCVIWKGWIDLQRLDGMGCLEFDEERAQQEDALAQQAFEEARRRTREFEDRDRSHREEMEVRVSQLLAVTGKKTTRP
Cytochrome P450 2C9, sequence (P11712 whole entry): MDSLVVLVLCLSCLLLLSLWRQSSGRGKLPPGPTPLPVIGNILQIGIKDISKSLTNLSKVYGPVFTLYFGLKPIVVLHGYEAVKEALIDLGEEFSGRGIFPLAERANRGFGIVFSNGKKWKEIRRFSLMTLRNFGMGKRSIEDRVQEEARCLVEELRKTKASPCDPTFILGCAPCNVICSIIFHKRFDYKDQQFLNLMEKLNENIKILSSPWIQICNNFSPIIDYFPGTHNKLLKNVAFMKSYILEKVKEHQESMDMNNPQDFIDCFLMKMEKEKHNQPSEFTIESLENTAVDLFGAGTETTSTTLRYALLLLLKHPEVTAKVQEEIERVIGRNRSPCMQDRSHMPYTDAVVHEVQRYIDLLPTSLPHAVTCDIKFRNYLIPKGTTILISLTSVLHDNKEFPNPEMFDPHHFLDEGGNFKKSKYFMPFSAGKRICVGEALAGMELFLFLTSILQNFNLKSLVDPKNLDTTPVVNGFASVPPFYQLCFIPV
Female germline-specific tumor suppressor gld-1, sequence (Q17339 whole entry): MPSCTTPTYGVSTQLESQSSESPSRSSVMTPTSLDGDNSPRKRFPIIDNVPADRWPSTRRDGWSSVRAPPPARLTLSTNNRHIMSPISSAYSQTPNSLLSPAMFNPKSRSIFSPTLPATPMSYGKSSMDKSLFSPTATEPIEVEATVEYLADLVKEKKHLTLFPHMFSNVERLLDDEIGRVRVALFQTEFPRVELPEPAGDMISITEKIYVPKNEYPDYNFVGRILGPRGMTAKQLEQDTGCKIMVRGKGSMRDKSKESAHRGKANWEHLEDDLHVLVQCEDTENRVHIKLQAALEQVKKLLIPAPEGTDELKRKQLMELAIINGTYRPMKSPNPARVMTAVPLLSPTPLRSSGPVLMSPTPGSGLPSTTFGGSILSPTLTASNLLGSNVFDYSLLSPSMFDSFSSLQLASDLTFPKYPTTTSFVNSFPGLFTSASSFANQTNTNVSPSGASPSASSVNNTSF
Keap1/Nrf2, sequence (Q16236 whole entry): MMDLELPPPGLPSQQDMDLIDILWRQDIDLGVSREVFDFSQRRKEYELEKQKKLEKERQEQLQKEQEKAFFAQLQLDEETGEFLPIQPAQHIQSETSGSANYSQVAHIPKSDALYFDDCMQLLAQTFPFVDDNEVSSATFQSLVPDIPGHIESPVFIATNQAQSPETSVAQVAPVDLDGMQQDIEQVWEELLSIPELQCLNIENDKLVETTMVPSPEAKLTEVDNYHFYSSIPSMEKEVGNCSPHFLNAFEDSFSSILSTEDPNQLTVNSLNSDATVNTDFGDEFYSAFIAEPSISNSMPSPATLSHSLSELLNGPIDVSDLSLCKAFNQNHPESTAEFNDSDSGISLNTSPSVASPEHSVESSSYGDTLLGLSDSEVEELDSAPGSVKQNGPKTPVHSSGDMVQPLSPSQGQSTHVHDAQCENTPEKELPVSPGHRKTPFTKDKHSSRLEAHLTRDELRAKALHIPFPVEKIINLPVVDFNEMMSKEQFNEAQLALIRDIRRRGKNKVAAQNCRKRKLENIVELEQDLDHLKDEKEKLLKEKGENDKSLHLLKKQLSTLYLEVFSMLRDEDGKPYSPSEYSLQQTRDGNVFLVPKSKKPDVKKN
Keap1/Nrf2, sequence (Q14145 whole entry): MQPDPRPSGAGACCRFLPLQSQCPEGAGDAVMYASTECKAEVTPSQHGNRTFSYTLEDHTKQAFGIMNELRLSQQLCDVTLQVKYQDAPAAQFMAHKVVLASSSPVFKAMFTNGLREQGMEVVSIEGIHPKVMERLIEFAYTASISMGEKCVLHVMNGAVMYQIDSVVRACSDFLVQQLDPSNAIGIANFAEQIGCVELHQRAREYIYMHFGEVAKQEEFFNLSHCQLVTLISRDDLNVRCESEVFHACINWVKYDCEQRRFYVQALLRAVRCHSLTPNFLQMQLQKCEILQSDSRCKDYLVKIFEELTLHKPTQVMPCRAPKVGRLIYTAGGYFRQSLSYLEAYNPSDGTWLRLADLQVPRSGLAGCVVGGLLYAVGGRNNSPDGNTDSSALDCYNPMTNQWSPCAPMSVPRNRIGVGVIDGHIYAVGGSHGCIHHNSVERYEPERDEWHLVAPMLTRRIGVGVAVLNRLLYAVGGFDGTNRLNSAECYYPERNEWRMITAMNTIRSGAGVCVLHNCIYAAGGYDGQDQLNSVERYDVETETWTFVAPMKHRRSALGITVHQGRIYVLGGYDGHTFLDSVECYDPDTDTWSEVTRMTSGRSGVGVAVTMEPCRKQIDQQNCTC
Protein Rev, sequence (P04618 whole entry): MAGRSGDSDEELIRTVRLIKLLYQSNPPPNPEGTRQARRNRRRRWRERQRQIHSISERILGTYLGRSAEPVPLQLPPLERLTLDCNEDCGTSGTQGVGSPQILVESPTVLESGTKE
Cytochrome P450 2C19, sequence (P33261 whole entry): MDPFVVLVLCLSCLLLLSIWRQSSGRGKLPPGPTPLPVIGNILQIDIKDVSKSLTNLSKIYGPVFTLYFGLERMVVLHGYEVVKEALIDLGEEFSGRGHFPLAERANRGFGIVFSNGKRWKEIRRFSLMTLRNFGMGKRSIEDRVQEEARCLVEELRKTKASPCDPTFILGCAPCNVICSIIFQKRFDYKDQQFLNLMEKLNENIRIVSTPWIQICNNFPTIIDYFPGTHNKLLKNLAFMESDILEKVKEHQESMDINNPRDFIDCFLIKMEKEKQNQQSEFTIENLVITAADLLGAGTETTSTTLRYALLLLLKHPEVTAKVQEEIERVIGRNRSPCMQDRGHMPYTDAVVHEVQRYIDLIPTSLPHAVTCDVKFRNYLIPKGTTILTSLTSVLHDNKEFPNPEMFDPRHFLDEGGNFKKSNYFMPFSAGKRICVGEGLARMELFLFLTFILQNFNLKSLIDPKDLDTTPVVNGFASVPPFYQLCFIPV

## CCOC(=O)c1[nH]cnc1N=Nc1c(O)ccc2ccccc12
[1]
  EC50: 7.69 µM (active)
[2]
  IC50: 6.23 µM (active)
[3]
  IC50: 3.2 µM (active)
[4]
  EC50: 9.18 µM (active)
[5]
  EC50: 8.61 µM (active)
Cells [6]
  EC50: > 350 µM (not active)
[7]
  AC50: 3.76 µM (active)
Cells [8]
  EC50: > 350 µM (not active)
INS1
  AC50: 1.21 µM (active)
Protein Rev
  IC50: > 75.4 µM (not active)
[9]
  IC50: 2.22 µM (active)

## O=C1c2ccccc2C(=O)c2c1ccc(O)c2O [ATHRAQUINONES A]
[10]
  AC50: 4.54 µM (active)
Keap1/Nrf2
  AC50: > 52 µM (inactive)

## CC(C)c1ccc(N(C(=O)C(F)(F)F)C(C(=O)NC2CCCCC2)c2ccncc2)cc1 (stereo not given)
Cytochrome P450 3A4
  AC50: inconclusive
Cytochrome P450 2C9
  AC50: 2.24 µM (inconclusive)
Cytochrome P450 2C19
  AC50: 1.12 µM (inconclusive)

## Cc1nn(C)c(Oc2cccc(Cl)c2)c1C=O
Cytochrome P450 1A2
  AC50: 11.2 µM (inconclusive)
Cytochrome P450 3A4
  AC50: inconclusive
Cytochrome P450 2C9
  AC50: 0.891 µM (inconclusive)

## S=C(NNc1ccnc2cc(Cl)ccc12)Nc1ccc(Cl)cc1Cl
[11]
  AC50: 4.9 µM (active)
[12]
  AC50: 3.96 µM (active)
HEK293 [13]
  EC50: > 20 µM (inactive)
HEK293 [14]
  IC50: 11.2 µM (active)
[15]
  AC50: > 70 µM (inactive)
HEK293 [16]
  IC50: > 20 µM (inactive)
HEK293 [17]
  IC50: 11.6 µM (inactive)

## C/C(=N\NC(=O)CCc1ccccc1)C1C(=O)c2ccccc2C1=O
[18]
  CC50: 11.8 µM (active)
[19]
  CC50: 13.8 µM (active)

## N#Cc1c2c(c(NCc3cccnc3)n3c1nc1ccccc13)CCC2
[20]
  IC50: 57 µM (inactive)
[21]
  IC50: 53.5 µM (inactive)
